Tests used:
SW480 cells = assay: Soft agar colony formation assay with SW480 cells; format: cell-based, human; conditions: Homo sapiens, 192 h, 5000 cells/well, colonies counted after 8 days
HL60 = conditions: human
Experimental: (§1) Cytotoxicity of COMPOUND 3 (an analog of COMPOUND 1, FIG. 1A) and other anticancer therapeutics were measured using cancer cells with various origins.

A549 = conditions: human
Experimental: as §1

PC3 = conditions: human
Experimental: as §1

293 = conditions: human
Experimental: as §1

MCF7 = conditions: human
Experimental: as §1

RPM17951 = conditions: human
Experimental: as §1

p300 (1-111) = target: T1, p300 (1-111) (Homo sapiens, UniProt Q09472); assay: Pull-down of p300 deletion constructs on COMPOUND 2 coated beads, competition with excess COMPOUND 1; format: binding; conditions: E. coli expressed 6x-His protein, 100 μM COMPOUND 2
T1 construct: 6xHis (C); HSV tag (C); expressed in transfected cells
T1 sequence (Q09472 1-117): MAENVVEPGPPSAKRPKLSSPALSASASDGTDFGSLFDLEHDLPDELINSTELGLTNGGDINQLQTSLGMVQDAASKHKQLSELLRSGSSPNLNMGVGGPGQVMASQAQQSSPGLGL
Experimental: FIG. 2. The first 111 amino acids of CBP, but not p300, specifically bind COMPOUND 1. • A. Schematic representation of the wild-type and deletion constructs for CBP. • B. CBP (1-111) contains the minimal binding domain of COMPOUND 1. Expression levels of CBP deletion constructs in SW480 cells are shown (upper panel). 10 μg of total protein was subjected to gel electrophoresis and subjected to immunoblotting using anti-His antibodies. Whole cell lysates of SW480 cells expressing CBP deletion constructs were bound to streptavidin-agarose beads coated with 100 μM of COMPOUND 2. The bound fractions were subjected to gel electrophoresis and immunoblotting using anti-His antibodies (lower panel). Arrows point to constructs which remained bound to COMPOUND 2 coated beads. • C. […] CBP deletion constructs, CBP(1-111),CBP (1-211), and CBP (1-351) and p300 deletion constructs, p300 (1-111), p300 (1-211), and p300 (1-351) were transfected into SW480 cells. Whole cell lysates were incubated with streptavidin-agarose beads or streptavidin-agarose beads coated with 100 μM COMPOUND 2 (lower panel). The binding of CBP constructs (1-111,1-211, and 1-351) and p300 constructs (1-111,1-211, and 1-351) to the beads was challenged with excess COMPOUND 1 (150 μM). • D. CBP (1-111) binds to COMPOUND 1 in a phosphorylation independent manner. […]

CBP = target: T2, CBP (Homo sapiens, UniProt Q92793); assay: COMPOUND 2 streptavidin-agarose affinity pull-down from SW480 nuclear extracts; format: binding; conditions: SW480 nuclear extract, immunoblotting with anti-CBP
T2 construct: endogenous in cells; host or cells: SW480 nuclear extract
T2 sequence (Q92793 whole entry): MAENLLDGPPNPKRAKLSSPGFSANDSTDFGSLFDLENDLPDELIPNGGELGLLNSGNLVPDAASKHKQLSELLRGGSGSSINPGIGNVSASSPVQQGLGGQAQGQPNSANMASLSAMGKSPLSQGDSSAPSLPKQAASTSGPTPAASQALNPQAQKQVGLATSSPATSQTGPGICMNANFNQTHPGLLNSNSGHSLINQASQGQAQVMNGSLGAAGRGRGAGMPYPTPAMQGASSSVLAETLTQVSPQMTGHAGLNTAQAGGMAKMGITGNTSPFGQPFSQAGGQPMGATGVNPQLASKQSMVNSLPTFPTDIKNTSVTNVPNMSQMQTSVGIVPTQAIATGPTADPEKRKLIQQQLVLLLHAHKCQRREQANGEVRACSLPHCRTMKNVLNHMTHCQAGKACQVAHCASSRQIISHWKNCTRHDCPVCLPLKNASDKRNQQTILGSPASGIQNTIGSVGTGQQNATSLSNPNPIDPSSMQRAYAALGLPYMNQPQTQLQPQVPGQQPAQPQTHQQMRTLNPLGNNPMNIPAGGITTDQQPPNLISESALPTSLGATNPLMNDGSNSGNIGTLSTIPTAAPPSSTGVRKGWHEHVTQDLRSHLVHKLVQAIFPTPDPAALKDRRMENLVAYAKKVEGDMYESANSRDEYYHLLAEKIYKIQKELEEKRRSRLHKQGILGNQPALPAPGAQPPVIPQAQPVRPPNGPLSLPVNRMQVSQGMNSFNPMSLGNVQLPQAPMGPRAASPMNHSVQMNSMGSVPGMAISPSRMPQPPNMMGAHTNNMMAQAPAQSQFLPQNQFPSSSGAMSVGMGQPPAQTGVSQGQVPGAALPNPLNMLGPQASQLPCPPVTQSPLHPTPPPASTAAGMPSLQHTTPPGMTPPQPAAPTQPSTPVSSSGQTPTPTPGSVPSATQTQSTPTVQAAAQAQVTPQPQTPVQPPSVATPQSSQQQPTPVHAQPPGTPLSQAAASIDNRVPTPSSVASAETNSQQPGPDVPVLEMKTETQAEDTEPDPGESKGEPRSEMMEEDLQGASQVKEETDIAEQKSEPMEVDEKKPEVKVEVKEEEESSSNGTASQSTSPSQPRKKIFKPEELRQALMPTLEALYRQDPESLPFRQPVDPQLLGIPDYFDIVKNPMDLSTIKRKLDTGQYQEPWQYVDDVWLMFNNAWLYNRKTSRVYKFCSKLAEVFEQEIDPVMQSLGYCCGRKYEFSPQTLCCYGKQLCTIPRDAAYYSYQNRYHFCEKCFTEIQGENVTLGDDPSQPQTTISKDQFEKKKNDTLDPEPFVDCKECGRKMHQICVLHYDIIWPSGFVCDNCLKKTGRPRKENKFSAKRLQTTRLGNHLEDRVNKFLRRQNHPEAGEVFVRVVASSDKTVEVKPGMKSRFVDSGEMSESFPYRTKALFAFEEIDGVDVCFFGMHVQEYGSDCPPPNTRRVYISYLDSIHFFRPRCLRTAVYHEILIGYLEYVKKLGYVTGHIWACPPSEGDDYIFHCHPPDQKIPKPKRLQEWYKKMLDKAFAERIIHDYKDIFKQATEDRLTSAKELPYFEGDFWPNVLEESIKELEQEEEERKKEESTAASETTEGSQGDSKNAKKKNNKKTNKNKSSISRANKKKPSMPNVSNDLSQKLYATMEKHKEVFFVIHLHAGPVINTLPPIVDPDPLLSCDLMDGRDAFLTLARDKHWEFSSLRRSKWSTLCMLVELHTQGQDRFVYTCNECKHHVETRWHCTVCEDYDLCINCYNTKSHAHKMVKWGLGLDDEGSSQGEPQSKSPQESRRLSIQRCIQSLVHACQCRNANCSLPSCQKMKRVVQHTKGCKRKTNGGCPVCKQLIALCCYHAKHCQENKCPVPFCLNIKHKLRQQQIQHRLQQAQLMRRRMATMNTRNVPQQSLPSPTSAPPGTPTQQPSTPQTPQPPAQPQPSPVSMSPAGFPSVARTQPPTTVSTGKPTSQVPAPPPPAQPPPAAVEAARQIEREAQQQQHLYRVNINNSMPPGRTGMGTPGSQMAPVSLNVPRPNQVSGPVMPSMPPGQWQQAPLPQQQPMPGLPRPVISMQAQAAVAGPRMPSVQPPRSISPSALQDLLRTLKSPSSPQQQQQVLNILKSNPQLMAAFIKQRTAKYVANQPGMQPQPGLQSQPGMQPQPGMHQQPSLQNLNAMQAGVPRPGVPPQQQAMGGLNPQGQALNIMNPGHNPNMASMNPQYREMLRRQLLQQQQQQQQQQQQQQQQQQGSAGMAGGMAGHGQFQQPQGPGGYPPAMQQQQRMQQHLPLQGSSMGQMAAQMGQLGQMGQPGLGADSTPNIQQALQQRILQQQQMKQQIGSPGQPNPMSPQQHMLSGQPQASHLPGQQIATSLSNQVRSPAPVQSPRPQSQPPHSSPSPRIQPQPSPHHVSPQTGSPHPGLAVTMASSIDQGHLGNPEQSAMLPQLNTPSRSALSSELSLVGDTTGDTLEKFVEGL
Experimental: FIG. 1. COMPOUND 1 inhibits β-catenin/TCF transcription. • A(i) and A(ii). Structures of COMPOUND 1, COMPOUND 2, COMPOUND 3, COMPOUND 4, and COMPOUND 5. • B(i) and B(ii). […] SW480 cells (10^5), (FIG. 1B(i)), were transfected with β-catenin/TCF luciferase construct. Cells were treated with COMPOUND 1 (1-64 μM). 24 hours post treatment lysates were prepared and subjected to dual luciferase assay. The data is represented in different form in FIG. 1B(ii). • C. COMPOUND 1 has no effect on NFAT reporter construct. Stably transfected Jurkat cells, right panel, with an NFAT reporter construct, were stimulated with PMA (10 ng/ml)/lonomycin (1 μg/ml), and treated with COMPOUND 1 (0.781-50 μM). 24 hours post treatment lysates were prepared and subjected to dual luciferase assay. All experiments were performed in duplicate and the values plotted as means +/−standard deviation. • D. CBP is the molecular target of COMPOUND 1. Nuclear extracts of SW480 cells were incubated with streptavidin-agarose beads coated with COMPOUND 2 (25 μM). Beads were washed 3 times and the eluted were subjected to gel electrophoresis and immunoblotting, with anti-CBP antibodies. […] The lysates were desalted using G-25 1 cc columns (Pharmacia) to remove the unbound ^14C-labeled-COMPOUND 1, and ^14C-labeled-COMPOUND 1 incorporation was measured. […]

CBP (1-111) = target: T3, CBP (1-111) (Mus musculus, UniProt P45481); assay: Pull-down of CBP deletion constructs on COMPOUND 2 coated beads, competition with excess COMPOUND 1; format: binding; conditions: E. coli expressed 6x-His protein, 100 μM COMPOUND 2
T3 construct: 6xHis (C); HSV tag (C); expressed in transfected cells
T3 sequence (P45481 1-110): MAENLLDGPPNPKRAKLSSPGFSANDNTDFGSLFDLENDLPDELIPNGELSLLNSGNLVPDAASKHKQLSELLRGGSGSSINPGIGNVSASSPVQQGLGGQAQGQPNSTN

Min mouse = assay: Polyp number in Min mouse model; format: in vivo; conditions: for Polyp Number (Mean + S.D.), Colon / Polyp Number (Mean + S.D.), Small intestine / Polyp Number (Mean + S.D.), Total / % Inhibition vs. VH: Min mouse; for % Inhibition vs. VH: total polyp number vs. vehicle
Experimental: COMPOUND 4, COMPOUND 5, or vehicle was administrated in wild type and Min mice. COMPOUND 4 is also an analog of COMPOUND 1 (FIG. 1A). The numbers of polyp formed in small intestine and colon of these mice after various treatments were measured (Table 6).

[1] = tested on: nuclear β-catenin in SW480 cells; assay: β-catenin immunofluorescence and western blot localization in SW480 cells; format: cell-based, human; conditions: data not shown
Experimental: FIG. 4. COMPOUND 1 decreases nuclear β-catenin • A. β-catenin immunofluorescence microscopy. Log phase SW480 (left) and HCT116 (right) cells were fixed and stained with either anti-β-catenin red (upper panel, A) or anti-CBP (upper panel, B) green. The center panel represents the superimposed β-catenin and CBP in SW480 (left) and HCT116 (right) cells. […] 25 μg of total protein from the cell extracts of SW480 cells with or without 24 hr treatment of COMPOUND1 was used for detection of cytosolic and nuclear β-catenin.
Immunofluorescence was used to examine the localization of CBP and β-catenin in SW480 and HCT116 cells treated with COMPOUND 1 (25 μM) or control (0.5% DMSO). Cells at log phase were seeded and after 24 hours, the cells were treated with COMPOUND 1 or control. 24 hours post treatment, cells were fixed. The coverslips were incubated with antibodies raised against CBP (A-22) (Santa Cruz Biotechnology) and β-catenin (Transduction Laboratories), respectively. The slides were examined using a Nikon PCM 2000 Laser Scanning Confocal Microscope after the secondary antibodies conjugated to either FITC or TRITC (Jackson ImmunoResearch, Westgrove, Pa.) were applied.
The subcellular distribution of β-catenin and CBP was examined in order to determine whether the localization of either was affected by COMPOUND 1. […]

Structure (SMILES): O=c1[nH]cc(F)c(=O)[nH]1 [5-FU, 5-fluorouracil]
- IC50 (SW480 cells): 1.98 ± 0.17 µM
- Cytotoxicity (HL60): 7.010 µg/mL
- Cytotoxicity (A549): 1.007 µg/mL
- Cytotoxicity (PC3): >10 µg/mL
- Cytotoxicity 293: 2.015 µg/mL
- Cytotoxicity (MCF7): 1.751 µg/mL
- Cytotoxicity (RPM17951): 0.920 µg/mL

Structure (SMILES): COc1cccc2c1C(=O)c1c(O)c3c(c(O)c1C2=O)C[C@@](O)(C(=O)CO)C[C@@H]3O[C@H]1C[C@H](N)[C@H](O)[C@H](C)O1 [ADR, adriamycin]
- Cytotoxicity (HL60): 0.086 µg/mL
- Cytotoxicity (A549): 0.117 µg/mL
- Cytotoxicity (PC3): 0.267 µg/mL
- Cytotoxicity 293: <0.03 µg/mL
- Cytotoxicity (MCF7): 1.424 µg/mL
- Cytotoxicity (RPM17951): 0.171 µg/mL

Structure (SMILES): O=C(CCCCCNC(=O)CCCCC1SCC2NC(=O)NC21)NCCCCCC(=O)NCc1cccc(CNC(=O)N2CCC(=O)N3C(Cc4ccc(O)cc4)C(=O)N(Cc4cccc5ccccc45)CC23)c1 (centres unmarked) [COMPOUND 2]
- Binding of purified p300 (1-111) to COMPOUND 2 beads (p300 (1-111)): not p300 (1-111)
- Major band retained on COMPOUND 2 affinity column (CBP): identified by immunoblotting as the CREB Binding Protein (CBP)
- Binding of purified CBP (1-111) to COMPOUND 2 beads (CBP (1-111)): specific binding

Structure (SMILES): CN1CC(=O)N2C(Cc3ccc(O)cc3)C(=O)N(Cc3cccc4cccnc34)CC2N1C(=O)NCc1ccccc1 (centres unmarked) [COMPOUND 4]
- Effect on number of polyp compared to vehicle control (Min mouse; Min mice, about 300 mpk): reduce the number of polyp
- Polyp Number (Mean + S.D.), Colon (Min mouse; 300 mpk): 1.4 ± 0.9
- Polyp Number (Mean + S.D.), Small intestine (Min mouse; 300 mpk): 45.2 ± 22.1
- Polyp Number (Mean + S.D.), Total (Min mouse; 300 mpk): 46.8 ± 17.0
- % Inhibition vs. VH (Min mouse; 300 mpk): 31%

Structure (SMILES): CC1=C(CC(=O)O)c2cc(F)ccc2/C1=C\c1ccc([S+](C)[O-])cc1 (centres unmarked) [Sulindac, reference compound]
- Polyp Number (Mean + S.D.), Colon (Min mouse; 160 ppm): 0.5 ± 0.5
- Polyp Number (Mean + S.D.), Small intestine (Min mouse; 160 ppm): 48.0 ± 20.7
- Polyp Number (Mean + S.D.), Total (Min mouse; 160 ppm): 48.5 ± 20.9
- % Inhibition vs. VH (Min mouse; 160 ppm): 28%

Structure (SMILES): CCC(=C/[C@H](C)C/C=C/C(C)=C/[C@@H](C)C(=O)[C@@H](C)[C@H](O)[C@@H](C)C/C(C)=C/C(=O)O)/C=C/[C@@H]1OC(=O)C=C[C@@H]1C [leptomycin B, reference compound]
- Effect of nuclear transport inhibitor on COMPOUND 1-induced β-catenin transport [1]: eliminated COMPOUND 1-induced cytoplasmic transport of β-catenin

Reference: patent US7531320B2, “Modulation of β-catenin/TCF-activated transcription” (priority 2003, dated 2009)
